{
  "source": "patent US8580795B2",
  "about": "“Heterocyclic compounds as phosphodiesterase inhibitors” (Orchid Chemicals & Pharmaceuticals Limited, priority 2009, dated 2013)",
  "key": {"[1]": {"tested_on": "TNF-α", "test": "LPS induced sepsis for measurement of TNF-α inhibition in mice", "assay_type": "in vivo, Female Swiss albino mice", "conditions": "10 mg/kg oral, 30 min before LPS i.p., serum 90 min after LPS", "experimental": "LPS Induced Sepsis for Measurement of TNF-α Inhibition in Mice:\nThe LPS induced sepsis model in mice was performed as described by Les sekut et al (J Lab Clin Med 1994; 124, 813-20). Female Swiss albino mice were selected and the body weights were equivalent within each group. The mice were fasted for 20 h with free access to water. The mice were dosed orally with the test compound suspended in vehicle containing 0.5% Tween 80 in 0.25% Carboxy-methylcellulose sodium salt. The control mice were administered the vehicle alone. After 30 minutes of oral dosing, mice were injected with 500 μg of Lipopolysaccharide (Escherichia coli, LPS: B4 from Sigma) in phosphate buffer saline solution into the intraperitoneal cavity of the mice. After 90 minutes of LPS administration mice were bled via retro-orbital sinus puncture. Blood samples were stored overnight at 4° C. Serum samples were collected by centrifuging the samples at 4000 rpm for 15 minutes at 4° C. Immediately the serum samples were analysed for TNF-α levels using commercially available mouse TNF-α ELISA kit (Amersham Biosciences) and assay was performed by the manufacturer instruction."}, "[2]": {"biological_target": "human PDE4B enzyme (PDE4B2) (Homo sapiens, UniProt Q07343)", "sequence (Q07343 1-564 isoform Q07343-2)": "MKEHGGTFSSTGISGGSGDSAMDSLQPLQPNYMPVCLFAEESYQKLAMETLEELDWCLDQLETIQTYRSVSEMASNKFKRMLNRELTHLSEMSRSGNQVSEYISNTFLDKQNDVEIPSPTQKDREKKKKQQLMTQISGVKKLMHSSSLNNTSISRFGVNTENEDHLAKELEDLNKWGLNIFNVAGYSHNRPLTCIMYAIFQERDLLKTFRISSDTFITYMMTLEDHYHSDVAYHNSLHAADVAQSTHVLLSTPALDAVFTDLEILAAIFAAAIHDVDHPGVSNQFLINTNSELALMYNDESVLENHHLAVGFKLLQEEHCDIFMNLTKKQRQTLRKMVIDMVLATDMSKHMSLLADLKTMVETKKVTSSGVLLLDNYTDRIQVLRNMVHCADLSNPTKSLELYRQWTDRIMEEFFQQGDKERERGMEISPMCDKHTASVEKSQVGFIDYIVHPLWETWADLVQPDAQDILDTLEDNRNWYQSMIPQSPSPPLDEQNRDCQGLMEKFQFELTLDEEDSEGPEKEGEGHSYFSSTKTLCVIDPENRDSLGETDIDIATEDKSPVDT", "test": "Phosphodiesterase 4 screening assay (SPA, [3H]-cAMP)", "assay_type": "biochemical", "conditions": "100 nM compound; 0.5 μM cAMP", "experimental": "Phosphodiesterase 4 Screening Assay:\nPDE4 (Phosphodiesterase type IV) enzymes convert cyclic AMP (cAMP) into AMP. The assay is performed to determine the effect of test compounds on the inhibition of purified human PDE4B enzyme.\nThe assay involves the detection of the Tritiated AMP (product) using SPA beads known as yittrium silicate. The linear AMP bind preferentially to SPA yittrium silicate beads compared to cyclic nucleotides in the presence of zinc sulphate. The binding of the radiolabelled product to the bead brings the isotope into close proximity to allow radiation from the tritium to excite the scintillant within the bead to emit light. The unbound radiolabel is not close enough to allow this energy transfer and the light emitted due to the binding of tritiated AMP is detected as cpm (counts per minute).\nPDE Activity (SPA Based Assay Protocol):\nPDE4B activity was inhibited by the compounds according to the invention in a modified SPA (scintillation proximity assay) test, supplied by GE Healthcare Life Sciences (see procedural instructions “Phosphodiesterase [^3H]-cAMP SPA enzyme assay, code TRKQ 7090”), carried out in 96-well microtitre plates. The test volume is 100 μL and contains 50 mM Tris buffer (pH 7.4), 8.3 mM Mg^2+, in the presence of inhibitor or test compound, and containing PDE4B2 enzyme (sufficient to ensure that 10-20% of the cAMP is converted, under the said experimental conditions). […] After a pre-incubation of 5 minutes at 37° C., the reaction is started by adding the substrate (cAMP; 0.5 μM cAMP, including about 50,000 cpm of [^3H]-cAMP) and the assays are incubated for a further 10 minutes; after that, they are stopped by adding SPA beads containing 18 mM ZnSO4 (50 μl). After the beads have been sedimented (>30 minutes), the microtitre plates are analyzed in a Microplate luminescence detection device (TopCount* NXT; PerkinElmer Life Sciences). Where, the signal in the absence of enzyme is defined as the background. 100% activity was defined as the signal detected in the presence of enzyme and DMSO with the background subtracted. The corresponding IC50 values of the compounds for the inhibition of PDE4B2 activity are determined from the concentration-effect curves by means of non-linear regression fit of the standard 4-parameter/multiple binding sites equation from a eight- to ten-point titration. (Catherine B. et al. Anal. Biochem., 1999, 275(2), pp. 148-155, David M. E. Biochem. Pharmacol., 1999, 57, pp. 965-973)"}, "[3]": {"tested_on": "TNF-α", "test": "In vitro measurement of TNF-α production in LPS-stimulated human PBMC (ELISA)", "assay_type": "cell-based", "conditions": "100 nM compound, LPS 1 μg/mL, 18 h, NA: Not active", "experimental": "Biological Activity In Vitro Measurement of Tumor Necrosis Factor Alpha (TNF-α):\nThis assay determines the effect of test compounds on the production of TNF-α in human Peripheral Blood Mononuclear Cells (PBMC). Compounds were tested for their ability to inhibit the activity of TNF α in human PBMC. PBMC were isolated from blood (of healthy volunteers) using BD Vacutainer CPT™ (Cell preparation tube, BD Bio Science) and suspended in RPMI (Rosewell park memorial institute) medium (Physiol. Res. 2003, 52, 593-598). The test compounds were pre-incubated with PBMC (0.5 million/incubation well) for 15 minutes at 37° C. and then stimulated with Lipopolysaccharide (Escherichia coli: B4; 1 μg/mL) for 18 h at 37° C. in 5% CO2. The levels of TNF-α in the cell culture medium were estimated using enzyme-linked immunosorbent assay performed in a 96 well format as per the procedure of the manufacturer (Cayman Chemical, Ann Arbor, USA)."}, "[4]": {"tested_on": "LPS induced neutrophilia", "test": "LPS induced neutrophilia model for asthma and COPD", "assay_type": "in vivo, Male Sprague Dawley rats", "conditions": "rats, BAL 6 h after LPS exposure", "experimental": "LPS Induced Neutrophilia Model for Asthma and COPD:\nLPS induced neutrophilia in Sprague Dawley rats was performed using the protocol described in Pulm Pharmacol & Ther 17,133-140, 2004. Male Sprague. Dawley rats were acclimatized to laboratory conditions five to seven days prior to the start of the experiment. They were randomly distributed to various groups based on body weight. Except normal group all the animals were exposed to LPS 100 μg/ml for 40 minutes. The rats were dosed with the test compound suspended in the vehicle containing 0.25% carboxymethylcellulose before half an hour of LPS exposure. BAL was performed 6 h after LPS exposure, total cell count and DLC was done and compared with control and the standard drug."}},
  "data": [
    {"smiles": "COc1ccc(-c2nc(CCC(=O)Nc3c(Cl)cncc3Cl)cs2)c2c1oc1ccccc12", "note": "[Example 11, N-(3,5-Dichloropyridin-4-yl)-3-(2-(4-methoxydibenzo[b,d]furan-1-yl)-1,3-thiazol-4-yl)propanamide]", "values": [
      {"measurement": "TNF-α Inhibition (%)", "setting": "[1]", "result": 46.70, "unit": "%"},
      {"measurement": "inhibition at 0.1 µM", "setting": "[2]", "result": 32.8, "unit": "%"}
    ]},
    {"smiles": "COc1ccc(-c2nc(C(=O)Nc3c(Cl)cncc3Cl)cs2)c2c1oc1ccccc12", "note": "[Example 13, N-(3,5-Dichloropyridin-4-yl)-2-(4-methoxydibenzo[b,d]furan-1-yl)-1,3-thiazole-4-carboxamide]", "values": [
      {"measurement": "TNF-α Inhibition (%)", "setting": "[1]", "result": 37.83, "unit": "%"},
      {"measurement": "inhibition at 0.1 µM", "setting": "[3]", "result": 26.1, "unit": "%"},
      {"measurement": "inhibition at 0.1 µM", "setting": "[2]", "result": 70.3, "unit": "%"}
    ]},
    {"smiles": "O=C(Nc1c(Cl)cncc1Cl)c1csc(-c2ccc(OC(F)F)c3oc4ccccc4c23)n1", "note": "[Example 14, N-(3,5-dichloropyridin-4-yl)-2-(4-(difluoromethoxy)dibenzo[b,d]furan-1-yl)-1,3-thiazole-4-carboxamide]", "values": [
      {"measurement": "TNF-α Inhibition (%)", "setting": "[1]", "result": 40.67, "unit": "%"},
      {"measurement": "inhibition at 0.1 µM", "setting": "[3]", "result": 14.5, "unit": "%"},
      {"measurement": "inhibition at 0.1 µM", "setting": "[2]", "result": 42.3, "unit": "%"}
    ]},
    {"smiles": "COc1ccc(-c2nc(C(N)=O)cs2)c2c1oc1ccccc12", "note": "[Example 25, 2-(4-Methoxydibenzo[b,d]furan-1-yl)-1,3-thiazole-4-carboxamide]", "values": [
      {"measurement": "inhibition at 0.1 µM", "setting": "[3]", "result": 35.5, "unit": "%"},
      {"measurement": "inhibition at 0.1 µM", "setting": "[2]", "result": 15.4, "unit": "%"}
    ]},
    {"smiles": "COc1ccc(-c2nc(C(=O)NN3CCOCC3)cs2)c2c1oc1ccccc12", "note": "[Example 30, 2-(4-Methoxydibenzo[b,d]furan-1-yl)-N-morpholino-1,3-thiazole-4-carboxamide]", "values": [
      {"measurement": "inhibition at 0.1 µM", "setting": "[3]", "result": 21.9, "unit": "%"}
    ]},
    {"smiles": "COc1ccc(-c2nc(C(=O)NC3CCC(O)CC3)cs2)c2c1oc1ccccc12", "note": "(centres unmarked) [Example 31, N-(4-Hydroxycyclohexyl)-2-(4-methoxydibenzo[b,d]furan-1-yl)-1,3-thiazole-4-carboxamide]", "values": [
      {"measurement": "inhibition at 0.1 µM", "setting": "[3]", "result": 63.1, "unit": "%"}
    ]},
    {"smiles": "CS(=O)(=O)Nc1ccc2oc3c(OC(F)F)ccc(-c4nc(C(=O)Nc5c(Cl)cncc5Cl)cs4)c3c2c1", "note": "[Example 34]", "values": [
      {"measurement": "inhibition at 0.1 µM", "setting": "[3]", "result": 25.1, "unit": "%"}
    ]},
    {"smiles": "Cc1sc(-c2ccc(OC(F)F)c3oc4ccc(NS(C)(=O)=O)cc4c23)nc1C(=O)NC1CCC(O)CC1", "note": "(centres unmarked) [Example 35, 2-(4-(Difluoromethoxy)-8-(methylsulfonamido)dibenzo[b,d]furan-1-yl)-N-(4-hydroxycyclohexyl)-5-methyl-1,3thiazole-4-carboxamide]", "values": [
      {"measurement": "inhibition at 0.1 µM", "setting": "[3]", "result": 61.8, "unit": "%"},
      {"measurement": "LPS induced neutrophilia % inhibition", "setting": "[4]; Dose 10 mg/kg", "result": 19.29, "unit": "%"}
    ]},
    {"smiles": "CC(=O)Nc1ccc2oc3c(OC(F)F)ccc(-c4nc(C(=O)O)cs4)c3c2c1", "note": "[Example 36, 2-[8-(Acetylamino)-4-(difluoromethoxy)dibenzo[b,d]furan-1-yl]-1,3-thiazole-4-carboxylic acid]", "values": [
      {"measurement": "inhibition at 0.1 µM", "setting": "[3]", "result": 15.5, "unit": "%"}
    ]},
    {"smiles": "CONC(=O)c1nc(-c2ccc(OC(F)F)c3oc4ccc(NS(C)(=O)=O)cc4c23)sc1C", "note": "[Example 37, 2-(4-(Difluoromethoxy)-8-(methylsulfonamido)dibenzo[b,d]furan-1-yl)-N-methoxy-5-methyl-1,3-thiazole-4-carboxamide]", "values": [
      {"measurement": "inhibition at 0.1 µM", "setting": "[3]", "result": 35.4, "unit": "%"}
    ]},
    {"smiles": "CC(=O)Nc1ccc2oc3c(OC(F)F)ccc(-c4nc(C(=O)NC5CCC(O)CC5)cs4)c3c2c1", "note": "(centres unmarked) [Example 38, 2-(8-Acetamido-4-(difluoromethoxy)dibenzo[b,d]furan-1-yl)-N-(4-hydroxycyclohexyl)-1,3-thiazole-4-carboxamide]", "values": [
      {"measurement": "inhibition at 0.1 µM", "setting": "[3]", "result": 83.4, "unit": "%"},
      {"measurement": "LPS induced neutrophilia % inhibition", "setting": "[4]; Dose 5 mg/kg", "result": 35.68, "unit": "%"}
    ]},
    {"smiles": "O=C(NC1CCC(O)CC1)c1csc(-c2ccc(OC(F)F)c3oc4ccccc4c23)n1", "note": "(centres unmarked) [Example 39, 2-((4-Difluoromethoxy)dibenzo[b,d]furan-1-yl)-N-(4-hydroxycyclohexyl)-1,3-thiazole-4-carboxamide]", "values": [
      {"measurement": "inhibition at 0.1 µM", "setting": "[3]", "result": 77.7, "unit": "%"},
      {"measurement": "LPS induced neutrophilia % inhibition", "setting": "[4]; Dose 10 mg/kg", "result": 57.98, "unit": "%"}
    ]},
    {"smiles": "O=C(NCC(F)(F)F)c1csc(-c2ccc(OC(F)F)c3oc4ccccc4c23)n1", "note": "[Example 40, 2-((4-Difluoromethoxy)dibenzo[b,d]furan-1-yl)-N-(2,2,2-trifluoroethyl)-1,3-thiazole-4-carboxamide]", "values": [
      {"measurement": "inhibition at 0.1 µM", "setting": "[3]", "result": 26.7, "unit": "%"}
    ]},
    {"smiles": "CONC(=O)c1csc(-c2ccc(OC(F)F)c3oc4ccccc4c23)n1", "note": "[Example 42, 2-((4-Difluoromethoxy)dibenzo[b,d]furan-1-yl)-N-methoxy-1,3-thiazole-4-carboxamide]", "values": [
      {"measurement": "inhibition at 0.1 µM", "setting": "[3]", "result": 8.5, "unit": "%"}
    ]},
    {"smiles": "O=C(NC1CCC(O)CC1)c1csc(-c2ccc(OC(F)F)c3oc4ccc(C(F)(F)F)cc4c23)n1", "note": "(centres unmarked) [Example 44, 2-(4-(Difluoromethoxy)-8-(trifluoromethyl)dibenzo[b,d]furan-1-yl)-N-(4-hydroxycyclohexyl)-1,3-thiazole-4-carboxamide]", "values": [
      {"measurement": "inhibition at 0.1 µM", "setting": "[3]", "result": 17.2, "unit": "%"}
    ]},
    {"smiles": "CS(=O)(=O)Nc1ccc2oc3c(OC(F)F)ccc(-c4nc(C(=O)NC5CCC(O)CC5)cs4)c3c2c1", "note": "(centres unmarked) [Example 46, 2-(4-(Difluoromethoxy)-(methylsulfonamido)dibenzo[b,d]furan-1-yl)-N-(4-hydroxycyclohexyl)-1,3-thiazole-4-carboxamide]", "values": [
      {"measurement": "inhibition at 0.1 µM", "setting": "[3]", "result": 78.6, "unit": "%"}
    ]},
    {"smiles": "CS(=O)(=O)Nc1ccc2oc3c(OC(F)F)ccc(-c4nc(C(=O)N[C@H]5CC[C@H](O)CC5)co4)c3c2c1", "note": "[Example 50, 2-(4-(Difluoromethoxy)-8-(methylsulfonamido)dibenzo[b,d]furan-1-yl)-N-(4-hydroxycyclohexyl)-1,3-oxazole-4-carboxamide]", "values": [
      {"measurement": "TNF-α Inhibition (%)", "setting": "[1]", "result": 13.15, "unit": "%"}
    ]}
  ]
}
